“Also recorded” adds a separate entry of the source.
What was measured:
HEK293 cells proteome = experiment: Tandem-Mass-Tagging global (whole) proteomics in HEK293 cells; type: cell-based, human; conditions: 10 nM
Protocol: For unbiased degradation profiling of compounds at the proteome level, HEK293 cells were seeded onto 10 cm plates at a density of 2–2.5 × 10^6 cells per plate. […] After treatment, cells were washed twice with PBS (Gibco), collected in Lobinding tubes (Merck) and lysed in RIPA buffer supplemented with Protease (Roche) and Phosphatase (Roche) inhibitors as previously described for 20 min on ice. Lysates were cleared via centrifugation and protein concentrations were determined by using Pierce BCA assay (Thermo Scientific). Similarly, brain and liver tissues from control and KH1 (24) treated mice were lysed as described above. One hundred and fifty micrograms of protein from tissues or cells for each condition was aliquoted into LoBind tubes (Eppendorf) and the STRAP (Protifi) protocol was followed according to manufacturers’ instructions with slight modifications. Briefly, liquid protein samples mixed with 2× Lysis buffer (10%SDS, 100 mM TEAB pH 8.5), protein was reduced with 5 mM DTT final concentration at 55 °C for 15 min, alkylated (final concentration 20 mM IAA or CAA) at room temperature for 10 min and then acidified (12% phosphoric acid). Protein was then trapped into S-trap columns and washed with S-trap binding/wash buffer (100 mM TEAB in 90% methanol) via centrifugation at 4000 × g for 30 s. Cleaned proteins then went through tryptic digestion (Trypsin (Thermo Scientific) in 50 mM TEAB) overnight at 37 °C or 2 h at 47 °C. Digested peptides were sequentially eluted in 80 µL of 50 mM TEAB (Sigma–Aldrich), 0.2% formic acid (Sigma–Aldrich) and 50% acetonitrile (Sigma–Aldrich). Elutions were pooled and dried down. Dried and cleaned peptides were reconstituted in 110 µL of 100 mM TEAB. TMT-16-plex reagent (Thermo Scientific) was brought into room temperature and reconstituted in 40 µL of anhydrous acetonitrile. TMT reagent solution was transferred to the peptides and incubated on thermoshaker (Eppendorf) at 400 rpm at room temperature for 1 h in the dark. Peptides were quenched by the addition of 8 µL of 5% Hydroxylamine for 1 h at room temperature. TMT-labelled peptides were pooled together and dried down in the speedVac for downstream processing. […]
The dried peptides were reconstituted in 0.1% formic acid and analyzed on an Orbitrap Ascend mass spectrometer coupled to a Thermo Fisher Scientific Vanquish Neo UHPLC. […] The precursor ions for MS2 were isolated using a Quadrupole mass filter at a 0.7 Da isolation width, fragmented using a normalised 30% HCD of ion routing multipole and analyzed using ion trap. The top 10 MS2 fragment ions in a subsequent scan were isolated and fragmented using HCD at a 55% normalised collision energy and analyzed using an Orbitrap mass analyser at a 60,000 resolution, in the scan range of 100–500 m/z. […]

GSK3β = target: T1, GSK3β (Mus musculus, UniProt Q9WV60); experiment: KH1 (24) intravenous PK/PD study: GSK3β abundance in liver and brain (immunoblot); type: in vivo, female Balb/c mice; conditions: single 5 mg/kg i.v., 4 h, listed as KH1 (24)
T1 construct: measured KH1 (24) levels in plasma and brain at 4 h, as well as GSK3β abundance in liver and brain; tissue Charles River Laboratories, UK; host or cells: liver and brain of female Balb/c mice
Protocol: A fraction of frozen brain and liver samples from control (CNT) and compound KH1 (24) treated animals were-transferred into Precellys 2 mL ceramic bead tubes containing 1 mL SDS lysis buffer (50 mM Tris-HCl pH 7.4, 150 mM NaCl, 1 mM EGTA, 270 mM sucrose, 1% (v/v) Triton-X100) supplemented with complete EDTA-free protease inhibitor cocktail (Roche) and PhosSTOP phosphatase inhibitor tablets (Roche) and placed immediately on ice. Then samples were placed in Precellys Evolution tissue homogeniser (Bertin Technologies) and tissues were lysed at 0 °C for 3 × 30 s of cycles at 6800 rpm, with 30 s pause in between cycles. Samples were centrifugated at 4 °C, 2000 × g for 60 s to get rid of bubbles and supernatant was transferred into new tubes. Lysates were cleared via centrifugation at 16,000 × g, 4 °C for 20 min. Protein concentration was determined by BCA assay (Thermo Scientific) and immunoblotting performed as previously described above. Immunoblots were quantified using ImageLab (Bio-Rad) and band intensities were normalised to loading controls; anti-GAPDH or Ponceau S staining and fold changes for protein of interest were plotted.
For the PK/PD study for KH1 (24), three female Balb/c mice were given a bolus intravenous injection at a dose level of 5 mg/kg (5 mL/kg). […] The concentration of KH1 (24) in whole blood and brain tissue was determined via UPLC-MS/MS.

T1 sequence (Q9WV60 whole entry): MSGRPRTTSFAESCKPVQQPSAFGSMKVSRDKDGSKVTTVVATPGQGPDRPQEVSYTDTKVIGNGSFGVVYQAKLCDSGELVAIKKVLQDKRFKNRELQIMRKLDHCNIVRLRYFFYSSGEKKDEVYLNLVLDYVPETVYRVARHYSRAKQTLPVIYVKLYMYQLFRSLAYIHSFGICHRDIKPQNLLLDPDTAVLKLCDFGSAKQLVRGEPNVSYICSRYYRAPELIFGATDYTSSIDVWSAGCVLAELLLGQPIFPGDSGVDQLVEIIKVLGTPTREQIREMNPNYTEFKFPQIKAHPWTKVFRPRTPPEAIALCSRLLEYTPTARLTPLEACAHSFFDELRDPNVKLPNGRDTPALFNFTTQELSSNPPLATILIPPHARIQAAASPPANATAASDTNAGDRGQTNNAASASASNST

SMILES: Cn1nc(N2CCC(=O)NC2=O)c2ccc(CN3CCN(Cc4ccc(-c5cn(-c6ccc(-c7cn8nccc(C(=O)Nc9cnccc9N9CCOCC9)c8n7)cc6)nn5)nc4)CC3)cc21 [compound 24]
- proteome-wide selectivity (HEK293 cells proteome; 4 and 24 h, vs DMSO and negative control 27): consistent proteome-wide selectivity for GSK3α and GSK3β
- proteome-wide selectivity (HEK293 cells proteome; 2 h, vs DMSO and negative control): exquisite selectivity for GSK3 paralogs
- β-catenin abundance, log2 fold change (HEK293 cells proteome; 4 h, p < 0.0005): +0.63
- β-catenin abundance, log2 fold change (HEK293 cells proteome; 24 h, p < 0.005): +0.89
- GSK3β abundance in liver (GSK3β; p < 0.0001 vs control): almost complete removal of GSK3β; also recorded: almost completely remove GSK3β
- GSK3β abundance in brain (GSK3β; p = 0.0159 vs control): significant degradation of GSK3β; also recorded: partial degradation
